# Results reported in patent US12600740B2, “Fluorinated N-acetyl glucosamine analogs and xylose derivatives” (UTI Limited Partnership, priority 2018, dated 2026).
# Experiments:
# mouse astrocytes = test: Propidium iodide/calcein AM toxicity on astrocytes; assay type: cell-based; settings: 100 μM, 48 hours
# Protocol: Toxicity on astrocytes was assayed with propidium iodide/calcein AM […]. Live cells convert calcein AM into a green fluorescent product, whereas dying/dead cells are stained with propidium iodide.
# 96-well plates were imaged with ImageXpress® Micro Cellular Imaging and Analysis System (Molecular Devices, Sunnyvale, CA). Twelve images per well were collected at ×10 magnification. Images were processed with MetaXpress analysis software. OPC outgrowth was calculated by the MetaExpress® “neurite outgrowth” software module which uses fluorescence and user-modified parameters to document the overall extent of processes emanating from the cell soma, regardless of size of the protrusions or the number of branches. This was previously detailed elsewhere [Cua, R. C.; Lau, L. W.; Keough, M. B.; Midha, R.; Apte, S. S.; and Yong, V. W. Overcoming neurite-inhibitory chondroitin sulfate proteoglycans in the astrocyte matrix. Glia 2013, 61 (6), 972-84]. Live-dead cell assay was calculated with MetaXpress analysis software with the “multiwavelength cell scoring”, which uses fluorescent intensity to measure co-localization of calcein AM, propidium iodide, and […]. Data from the 12 images were averaged to a single data point per well, wherein the OPC outgrowth data calculated from the MetaExpress® “neurite outgrowth” readout was divided by data from the same 12 fields of cell number that was acquired through the multiwavelength cell scoring. This provided mean outgrowth per cell per well, with four well replicates per treatment. Experiments were repeated at least twice.
# A mixture was created containing propidium iodide (10 μg/ml) to stain dead cells, 10 μM Calcein AM (ThermoFisher, #C3100MP) to identify live cells, and 2 drops per ml of media of NucBlue™ Live ReadyProbes™ Reagent (ThermoFisher, #R37605) to identify nuclei. The mixture was added to plate media and incubated for 20-30 minutes at 37° C. and 5% CO2 before imaging. Excitation/emission of calcein-AM (λex 490 nm, λem 515 nm), propidium iodide (λex 535 nm, λem 617 nm), and nuclear blue (λex 350 nm, λem 461 nm) was performed using ImageXpress® Micro Cellular Imaging and Analysis System (Molecular Devices, Sunnyvale, CA) and analyzed by MetaExpress multiwavelength cell scoring program.
# [1] = test system: oligodendrocyte precursor cells (OPCs); test: Growth of OPCs on astrocyte-secreted extracellular matrix; assay type: cell-based, mouse; settings: for Enhance OPC outgrowth: OPCs on inhibitory astrocyte matrix, significance class; for mean process outgrowth of OPCs on astrocyte ECM: astrocytes treated 48 hours, then removed, OPCs plated on matrix
# Source text: The process of remyelination requires oligodendrocyte lineage cells to undergo process outgrowth prior to their expression of mature myelin proteins for repair. Thus, process outgrowth in culture by cells of the oligodendrocyte lineage has been used as one surrogate for myelinating potential in vivo [Keough, M. B.; Rogers, J. A.; Zhang, P.; Jensen, S. K.; Stephenson, E. L.; Chen, T.; Hurlbert, M. G.; Lau, L. W.; Rawji, K. S.; Plemel, J. R. et al. An inhibitor of chondroitin sulfate proteoglycan synthesis promotes central nervous system remyelination. Nat. Commun. 2016, 7, 11312], since an oligodendrocyte needs to elaborate multiple protrusions emanating in several directions to contact many axons, and where these processes then compact around axons to form myelin segments. The presence of CSPGs in culture impairs the process outgrowth of OPCs, and this has been linked to reduced remyelination capacity in vivo [Keough, M. B.; Rogers, J. A.; Zhang, P.; Jensen, S. K.; Stephenson, E. L.; Chen, T.; Hurlbert, M. G.; Lau, L. W.; Rawji, K. S.; Plemel, J. R. et al. An inhibitor of chondroitin sulfate proteoglycan synthesis promotes central nervous system remyelination. Nat. Commun. 2016, 7, 11312]. It was reported previously that astrocytes in culture produce a plate-bound matrix abundant in CSPGs, that is left behind once astrocytes are removed from the plate, and this CSPG-containing matrix inhibits the outgrowth of plated OPCs [Keough, M. B. et al. An inhibitor of chondroitin sulfate proteoglycan synthesis promotes central nervous system remyelination. Nature communications 7, 11312 (2016)] (FIG. 7a). Thus, astrocytes were treated with test compounds for 48 hours and they were then removed from the cell culture plate leaving only their secreted ECM behind (FIG. 7a). When OPCs were plated on the astrocyte matrix, the extent of their process outgrowth over […] of observation was inhibited (FIG. 7b). […] OPCs growing in the absence of astrocyte ECM can reach a mean outgrowth around 300 μm (FIG. 7b,c). […] These compounds were: Ac-4,4-diF-GlcNAc 16 (Ac-4,4-diF-GlcNAc), fluorosamine 3 and its O1-deacetylated analog 10 (Ac-4-F-GlcNAcOH), anomeric O-propanoate 7, anomeric O-butanoate 8 (Ac-4-F-GlcNAcOBu), and the 4-fluorinated GalNAc derivative 13 (Ac-4-F-GalNAc) (FIG. 7c).
# In brief, cortices from postnatal days 1-3 mouse brains were dissociated with papain digestion and then plated as a mixed culture for 7 days in a 37° C. incubator at 8.5% CO2 whereupon OPCs and microglia tended to be loosely attached on top of a monolayer of astrocytes; the OPCs and microglia were then shaken off when placed on an orbital shaker at 220 r.p.m. at 37° C. and 5% CO2 overnight. The media containing microglia and OPCs were collected and added to a 100 mm tissue culture dish and left at 37° C. and 5% CO2 for 30 min, to allow preferential adhesion of microglia. The media were collected again, now containing OPCs, and used as the OPC-enriched isolates for experiments. For the remaining adhered cells, largely astrocytes, these were removed with 0.25% trypsin and after centrifugation and washing, these astrocytes were plated at a density of 1.0×10^5 cells in flat bottom 96-well plates coated with 10 μg/ml poly-L-lysine. Cells were grown for 7 days at 37° C. and 5% CO2 in MGM and daily media changes. Astrocytes were carefully removed with EDTA treatment (0.2 g EDTA (Na4) per liter PBS, 30 minutes at 37° C. and 5% CO2) and mechanical dislodgement with a micropipetter. The remaining ECM left behind was covered with PBS at 4° C. until OPCs were seeded. Enriched OPCs from mixed glial cultures were seeded at a density of 5-10×10^4 cells per well in OPC media and grown at 37° C. and 8.5% CO2 for 18-24 h and then were fixed with 4% ice-cold paraformaldehyde at 4° C. for 10 min, rinsed with PBS, and stored at 4° C. until immunocytochemistry. […]
Structure (SMILES),toxicity on astrocytes (propidium iodide/calcein AM) (mouse astrocytes),Enhance OPC outgrowth [1],mean process outgrowth of OPCs on astrocyte ECM [1]
"CC(=O)NC1C(OC(C)=O)OC(COC(C)=O)[C@@H](F)C1OC(C)=O (stereo partly drawn) [Compound 3, reference compound]",did not produce toxicity,** (**p < 0.01),effective at improving mean outgrowth of OPCs
CC(=O)NC1C(O)OC(COC(C)=O)[C@@H](F)[C@@H]1OC(C)=O (mixture of isomers) [Compound 10],did not produce toxicity,,effective at improving mean outgrowth of OPCs
"CCCC(=O)OC[C@H]1OC(O)[C@H](NC(C)=O)[C@@H](OC(=O)CCC)[C@@H]1F (stereo partly drawn) [Compound 12, 2-Acetamido-3,6-di-O-butanoyl-2,4-dideoxy-4-fluoro-α/β-3-D-glucopyranose]",,n.s.,
"CC(=O)N[C@H]1[C@H](OC(C)=O)O[C@H](COC(C)=O)[C@@H](OC(C)=O)[C@@H]1OC(C)=O [Compound 1, reference compound]",,n.s.,
"CC(=O)NC1C(OC(C)=O)OC(COC(C)=O)C(F)(F)[C@@H]1OC(C)=O (mixture of isomers) [Compound 16, 2-Acetamido-1,3,6-tri-O-acetyl-2,4-dideoxy-4,4-difluoro-α/β-D-xylo-hexopyranose]",did not produce toxicity,,effective at improving mean outgrowth of OPCs
"CCCC(=O)OC1OC(COC(C)=O)[C@@H](F)[C@H](OC(C)=O)C1NC(C)=O (mixture of isomers) [Compound 8, 2-Acetamido-3,6-di-O-acetyl-1-O-butanoyl-2,4-dideoxy-4-fluoro-α/β-D-glucopyranose]",did not produce toxicity,,effective at improving mean outgrowth of OPCs
"CC(=O)NC1C(OC(C)=O)OC(COC(C)=O)[C@H](F)[C@@H]1OC(C)=O (mixture of isomers) [Compound 13, 2-Acetamido-1,3,6-tri-O-acetyl-2,4-dideoxy-4-fluoro-α/β-D-galactopyranose]",did not produce toxicity,,effective at improving mean outgrowth of OPCs
"CCC(=O)OC1OC(COC(C)=O)[C@@H](F)[C@H](OC(C)=O)C1NC(C)=O (stereo partly drawn) [Compound 7, 2-Acetamido-3,6-di-O-acetyl-2,4-dideoxy-4-fluoro-1-O-propanoyl-α/β-D-glucopyranose]",did not produce toxicity,,effective at improving mean outgrowth of OPCs
